This assay has as its target T1, Neuromedin-K receptor (Homo sapiens, UniProt P29371).
T1 sequence (P29371 whole entry): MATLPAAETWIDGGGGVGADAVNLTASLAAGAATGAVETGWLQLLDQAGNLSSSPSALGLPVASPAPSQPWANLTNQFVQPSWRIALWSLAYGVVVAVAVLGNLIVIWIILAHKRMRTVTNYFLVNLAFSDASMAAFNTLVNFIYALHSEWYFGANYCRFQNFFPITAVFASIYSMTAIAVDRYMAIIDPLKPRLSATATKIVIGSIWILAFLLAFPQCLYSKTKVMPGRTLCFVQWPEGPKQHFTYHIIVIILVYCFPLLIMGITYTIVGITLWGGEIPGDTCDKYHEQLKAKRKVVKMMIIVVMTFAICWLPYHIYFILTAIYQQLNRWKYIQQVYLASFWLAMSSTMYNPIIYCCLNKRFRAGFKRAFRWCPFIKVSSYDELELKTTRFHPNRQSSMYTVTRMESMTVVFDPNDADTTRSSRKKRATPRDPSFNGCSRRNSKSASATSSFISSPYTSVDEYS
Briefly: Binding Competition Assay: NK3: The ability of compounds of the invention to inhibit the binding of the NK-3 receptor selective antagonist 3H-SB222200 was assessed by an in vitro radioligand binding assay. Membranes were prepared from Chinese hamster ovary recombinant cells stably expressing the human NK3 receptor. The membranes were incubated with 5 nM 3H-SB222200 (ARC) in a HEPES 25 mM/NaCl 0.1M/CaCl2 1 mM/MgCl2 5 Mm/BSA 0.5%/Saponin 10 μg/ml buffer at pH 7.4 and various concentrations of compounds of the invention. The amount of 3H-SB222200 bound to the receptor was determined after filtration by the quantification of membrane associated radioactivity using the TopCount-NXT reader (Packard).

In general, Ki refers to the dissociation constant of the complex between target and ligand, obtained from inhibition or displacement. Consider `Cc1coc(-c2nnc3n2CCN[C@@H]3C)n1`, for which the Ki stood at 51 nM.
